From patent US20100016328A1, “PTERIN ANALOGS” (BioMarin Pharmaceutical, Inc., priority 2007, published 2010)
Where a name gives a salt, the structure may show the parent alone. Read-outs that look alike come from different tables or passages of the source.

How the values were obtained:
[1] = Pharmacokinetics of BH4 and BH4 analogs given by oral gavage to monkeys; assay type: in vivo; conditions: fasted cynomolgus monkeys; for AUC0-t / Cmax: equivalent of 80 mg of BH4, n=3, plasma over 25 hours, standard deviation in parenthesis; for Tmax: equivalent of 80 mg of BH4, n=3, standard deviation in parenthesis
Protocol: Fasted cynomolgus monkeys were given BH4 and BH4 analogs by oral gavage (n=3), such that the amount of the analog administered was the equivalent of 80 mg of BH4. The plasma concentrations of the BH4, when administered directly, or the analogs was measured at various time points over a 25 hour period. The PK data is also shown in the following table, wherein the number in parenthesis is the standard deviation.

[2] = parameters: species or system male Sprague Dawley rats; conditions: male, Sprague Dawley, rat, in vivo, po
Protocol: This example allows for comparison of the pharmacokinetics of the analog (Compound I) versus that of BH4 following single oral administration in rats.
With respect to the administered BH4, the maximum total biopterin concentrations in plasma 2 hrs and 1 hr post-dosing were 108 ng/ml (i.e., about 3 fold the endogenous level) and 1227 ng/ml (i.e., about 30 fold the endogenous level), respectively. […] The ratio of reduced biopterin to total biopterins in plasma (i.e., the reduced-form ratio) was relatively static (73%-96%).

[3] = system: human umbilical vein endothelial cells (HUVEC); test: Nitric oxide production (nitrite+nitrate, Griess reaction) in NAS-pretreated HUVEC; assay type: cell-based; conditions: HUVEC pretreated with 3 mM NAS; for NO production (nitrite+nitrate): 50, 100, or 200 mM compound, 5-22 hours
Protocol: Cultured human umbilical vein endothelial cells (HUVEC) were pretreated with 3 mM N-acetylserotonin (NAS), an inhibitor of the enzyme sepiapterin reductase. Inhibition of this pathway typically results in loss of endogenous BH4, depressing the endogenous eNOS activity far below normal and provides an assay to test for restoration of eNOS activity.
Thus, subconfluent HUVECs were seeded in a 24-well plate and grown overnight in EGM2 medium (full growth medium). The next morning, fresh medium was added to the cells (300 μL/well), 3 mM NAS was added to the cells to decrease the endogenous BH4 levels. After an incubation of 1.5 hours, 50, 100, or 200 mM BH4 or compound of Example 5, Example 6, Example 7, or Example 9 were added to the cells. The cells were allowed to react with the BH4 or the compound of Example 5, Example 7, or Example 9 for 5-22 hours. The production of NO was then measured as changes in total (nitrite+nitrate) by the Griess reaction subsequent to nitrate reductase treatment. The percentage of nitrite+nitrate with BH4 or compound of Example 5, Example 7, or Example 9 is shown in FIG. 7 (after 5 hours); FIG. 8 (after 17 hours); and FIG. 9 (after 22 hours). The results for Example 6 are shown in FIG. 10 (after 5 hours) and FIG. 11 (after 20 hours).

[4] = Stability in human plasma; assay type: in vitro ADME; conditions: concentration of compound remaining over a 60 minute period; FIG. 3
Protocol: (§1) The stability of various compounds as disclosed herein were tested in human and rat and in simulated gastric fluid. Each compound was tested over an hour period for concentration of the compound remaining at each time point. The results are shown in FIGS. 3 (human plasma stability), 4 (rat plasma stability), and 5 (simulated gastric fluid stability) for the compounds of Example 2, 3, 4, and 20.

[5] = Stability in simulated gastric fluid; assay type: in vitro ADME; conditions: concentration of compound remaining over a 60 minute period; FIG. 5
Protocol: as §1

Stability in rat plasma = assay type: in vitro ADME; conditions: concentration of compound remaining over a 60 minute period; FIG. 4
Protocol: as §1

[6] = cynomolgus monkey, plasma, read-out: Tmax

| SMILES | AUC0-t [1] | Cmax [1] | Tmax [1] | other results |
| --- | --- | --- | --- | --- |
| C[C@H](O)[C@H](O)[C@H]1CNc2nc(N)[nH]c(=O)c2N1 [BH4, Tetrahydrobiopterin] | 288 (15.5) ng hr/mL | 42.0 (12.6) ng/mL | 3.0 (0)^ hr | ratio of reduced biopterin to total biopterins in plasma (reduced-form ratio) [2]: 73-96%; maximum total biopterin concentration relative to the endogenous level ([2]; 10 mg/kg): about 3 fold; time of maximum total biopterin concentration post-dosing ([2]; 10 mg/kg): 2 h; time of return to the endogenous level post-dosing ([2]; 10 mg/kg): 9 h; maximum total biopterin concentration relative to the endogenous level ([2]; 100 mg/kg): about 30 fold; time of maximum total biopterin concentration post-dosing ([2]; 100 mg/kg): 1 h; time of return to the endogenous level post-dosing ([2]; 100 mg/kg): 24 h |
| C[C@H](OC(=O)[C@@H](N)CCCCN)[C@H](O)[C@H]1CNc2nc(N)[nH]c(=O)c2N1 [Example 7, 2,6-Diamino-hexanoic acid 2-(2-amino-4-oxo-3,4,5,6,7,8-hexahydro-pteridin-6-yl)-2-hydroxy-1-methyl-ethyl ester tri-hydrochloride] | 572 (148) ng hr/mL | 82.3 (27.2) ng/mL | – | effect on NAS-treated cells compared with Example 5 [3]: similar, if slightly reduced, effect; NO production (nitrite+nitrate) [3]: increased NO production in a dose-dependent manner; Tmax [1, 6]: 2.67 h |
| C[C@H](O)[C@H](O)[C@H]1CNc2nc(N)[nH]c(=O)c2N1C(=O)OCc1ccccc1 (stereo in doubt) [Example 20, 2-Amino-6-(1,2-dihydroxy-propyl)-4-oxo-4,6,7,8-tetrahydro-1H-pteridine-5-carboxylic acid benzyl ester] | – | – | – | stability in human plasma [4]: high level of stability; stability in simulated gastric fluid [5]: high level of stability; stability in rat plasma (Stability in rat plasma): high level of stability |
| C[C@H](OC(=O)[C@@H]1CCCN1)[C@H](O)[C@H]1CNc2nc(N)[nH]c(=O)c2N1 [Example 9, Pyrrolidine-2-carboxylic acid 2-(2-amino-4-oxo-3,4,5,6,7,8-hexahydro-pteridin-6-yl)-2-hydroxy-1-methyl-ethyl ester dihydrochloride] | 384 (214) ng hr/mL | 61.9 (34.8) ng/mL | 2.0 (0)^ hr | effect on NAS-treated cells compared with Example 5 [3]: similar, if slightly reduced, effect; NO production (nitrite+nitrate) [3]: increased NO production in a dose-dependent manner |
| CCC(=O)O[C@@H]([C@H](C)OC(=O)CC)[C@H]1CNc2nc(N)[nH]c(=O)c2N1C(=O)CC [Example 3, Propionic acid 1-(2-amino-4-oxo-5-propionyl-3,4,5,6,7,8-hexahydro-pteridin-6-yl)-2-propionyloxy-propyl ester] | – | – | – | stability in human plasma [4]: high level of stability; stability in simulated gastric fluid [5]: high level of stability; stability in rat plasma (Stability in rat plasma): high level of stability |
| CC(C)[C@H](N)C(=O)N1c2c(nc(N)[nH]c2=O)NC[C@@H]1[C@@H](O)[C@H](C)O (stereo in doubt) [Example 13, 2-Amino-5-(2-amino-3-methyl-butyryl)-6-(1,2-dihydroxy-propyl)-5,6,7,8-tetrahydro-1H-pteridin-4-one hydrochloride] | 13.7 ng·h/mL | 2.2 ng/mL | 6.0 h | – |
| C[C@H](O)[C@H](O)[C@H]1CNc2nc(N)[nH]c(=O)c2N1C(=O)[C@@H]1CCCN1 (stereo in doubt) [Example 16, 2-Amino-6-(1,2-dihydroxy-propyl)-5-(pyrrolidine-2-carbonyl)-5,6,7,8-tetrahydro-1H-pteridin-4-one dihydrochloride] | 88.1 (31.5) ng hr/mL | 7.63 (2.7) ng/mL | 6.0 (0)^ hr | – |
| CC(=O)O[C@@H]([C@H](C)OC(C)=O)[C@H]1CNc2nc(N)[nH]c(=O)c2N1C(C)=O [Example 2, Acetic acid 2-acetoxy-1-(5-acetyl-2-amino-4-oxo-3,4,5,6,7,8-hexahydro-pteridin-6-yl)-propyl ester] | – | – | – | stability in human plasma [4]: high level of stability; stability in simulated gastric fluid [5]: high level of stability; stability in rat plasma (Stability in rat plasma): high level of stability |
| CC(C)[C@H](N)C(=O)O[C@@H]([C@H](C)OC(=O)[C@@H](N)C(C)C)[C@H]1CNc2nc(N)[nH]c(=O)c2N1 [Example 10, 2-Amino-3-methyl-butyric acid 2-(2-amino-3-methyl-butyryloxy)-1-(2-amino-4-oxo-3,4,5,6,7,8-hexahydro-pteridin-6-yl)-propyl ester trihydrochloride] | 625 (294) ng hr/mL | 138 (123) ng/mL | – | Tmax [1, 6]: 1.83 h |
| C[C@H](OC(=O)[C@@H]1CCCN1)[C@H](OC(=O)[C@@H]1CCCN1)[C@H]1CNc2nc(N)[nH]c(=O)c2N1 [Example 12, Pyrrolidine-2-carboxylic acid 1-(2-amino-4-oxo-3,4,5,6,7,8-hexahydro-pteridin-6-yl)-2-(pyrrolidine-2-carbonyloxy)-propyl ester trihydrochloride] | 438 (211) ng hr/mL | 73.6 (42.9) ng/mL | 3.0 (1.0) hr | – |
| CC[C@H](C)[C@H](N)C(=O)N1c2c(nc(N)[nH]c2=O)NC[C@@H]1[C@@H](O)[C@H](C)O (stereo in doubt) [Example 14, 2-Amino-5-(2-amino-3-methyl-pentanoyl)-6-(1,2-dihydroxy-propyl)-5,6,7,8-tetrahydro-1H-pteridin-4-one hydrochloride] | 63.2 (25.6) ng hr/mL | 5.23 (2.1) ng/mL | 12.1 (11.9) hr | – |
| C[C@H](O)[C@H](O)[C@H]1CNc2nc(N)[nH]c(=O)c2N1C(=O)[C@@H](N)CCCCN (stereo in doubt) [Example 15, 2-Amino-5-(2,6-diamino-hexanoyl)-6-(1,2-dihydroxy-propyl)-5,6,7,8-tetrahydro-1H-pteridin-4-one dihydrochloride] | 36.8 (37.6) ng hr/mL | 5.7 (1.7) ng/mL | 12.0 (10.4) hr | – |
| CCCC(=O)O[C@@H]([C@H](C)OC(=O)CCC)[C@H]1CNc2nc(N)[nH]c(=O)c2N1C(=O)CCC [Example 4, Butyric acid 1-(2-amino-5-butyryl-4-oxo-3,4,5,6,7,8-hexahydro-pteridin-6-yl)-2-butyryloxy-propyl ester] | – | – | – | stability in human plasma [4]: high level of stability; stability in simulated gastric fluid [5]: high level of stability; stability in rat plasma (Stability in rat plasma): high level of stability |
| C[C@H](OC(=O)[C@@H](N)CCCCN)[C@H](OC(=O)[C@@H](N)CCCCN)[C@H]1CNc2nc(N)[nH]c(=O)c2N1 [Example 11, 2,6-Diamino-hexanoic acid 2-(2-amino-4-oxo-3,4,5,6,7,8-hexahydro-pteridin-6-yl)-2-(2,6-diamino-hexanoyloxy)-1-methyl-ethyl ester pentahydrochloride] | 617 (336) ng hr/mL | 115 (65.4) ng/mL | 1.5 (0.09) hr | – |
| CCC(C)[C@H](N)C(=O)O[C@@H](C)[C@H](O)[C@H]1CNc2nc(N)[nH]c(=O)c2N1 (stereo in doubt) [Example 6, 2-Amino-3-methyl-pentanoic acid 2-(2-amino-4-oxo-3,4,5,6,7,8-hexahydro-pteridin-6-yl)-2-hydroxy-1-methyl-ethyl ester] | – | – | – | effect on NAS-treated cells compared with Example 5 [3]: similar, if slightly reduced, effect; NO production (nitrite+nitrate) [3]: increased NO production in a dose-dependent manner |
